Results reported in article PMC9405216, “Antimicrobial and Cytotoxic Cyathane-Xylosides from Cultures of the Basidiomycete Dentipellis fragilis” (Antibiotics, 2022).
pIC50: −log10 of the molar value. Converted amounts (≈) assume the structure as drawn. Read-outs that look alike come from different tables or passages of the source. Marks after values point to notes of the source that are not given here.

What was measured:
Type in all cases: cell-based
[1] = test system: Bacillus subtilis (DSM 10); experiment: Serial dilution MIC assay, Bacillus subtilis; settings: overnight incubation, n.i. = no inhibition
Method: (§1) Serial dilution assays in 96-well microtiter plates were performed according to our standard protocol in order to determine the minimum inhibitory concentrations (MICs) of pure isolated compounds against different microorganisms. Essentially, aliquots of compounds 1–5 and 9 (20 µL), each with an initial concentration of 1 mg/mL, were diluted in MeOH together with the respective microorganisms to concentrations ranging between 67 µg/mL and 0.5 µg/mL in the 96-well plates, followed by overnight incubation. The MIC was then determined as the lowest concentration at which no growth of the test organism was observed. A broad spectrum of clinically approved test pathogens and sensitivity indicator strains were used in the assays (Table 4 and Table 5). Ciprofloxacin, oxytetracycline, kanamycin, and gentamycin were used as positive controls against bacterial pathogens, while nystatin was used as the positive control against fungi.

[2] = test system: Mycolicibacterium smegmatis (ATCC 700084); experiment: Serial dilution MIC assay, Mycolicibacterium smegmatis; settings: serial dilution 67-0.5 µg/mL, overnight incubation, n.i. = no inhibition
Method: as §1

[3] = test system: Staphylococcus aureus (DSM 346); experiment: Serial dilution MIC assay, Staphylococcus aureus; settings: overnight incubation, n.i. = no inhibition
Method: as §1

[4] = test system: Actinobacter baumannii (DSM 30008); experiment: Serial dilution MIC assay, Actinobacter baumannii; settings: serial dilution 67-0.5 µg/mL, overnight incubation, n.i. = no inhibition
Method: as §1

[5] = test system: Chromobacterium violaceum (DSM 30191); experiment: Serial dilution MIC assay, Chromobacterium violaceum; settings: overnight incubation, n.i. = no inhibition
Method: as §1

[6] = test system: Escherichia coli (DSM 1116); experiment: Serial dilution MIC assay, Escherichia coli; settings: overnight incubation, n.i. = no inhibition
Method: as §1

[7] = test system: Pseudomonas aeruginosa (DSM PA14); experiment: Serial dilution MIC assay, Pseudomonas aeruginosa; settings: serial dilution 67-0.5 µg/mL, overnight incubation, n.i. = no inhibition
Method: as §1

[8] = test system: Candida albicans (DSM 1665); experiment: Serial dilution MIC assay, Candida albicans; settings: serial dilution 67-0.5 µg/mL, overnight incubation, n.i. = no inhibition
Method: as §1

[9] = test system: Pichia anomala (DSM 6766); experiment: Serial dilution MIC assay, Pichia anomala; settings: serial dilution 67-0.5 µg/mL, overnight incubation, n.i. = no inhibition
Method: as §1

[10] = test system: Rhodotorula glutinis (DSM 10134); experiment: Serial dilution MIC assay, Rhodotorula glutinis; settings: overnight incubation, n.i. = no inhibition
Method: as §1

[11] = test system: Schizosaccharomyces pombe (DSM 70572); experiment: Serial dilution MIC assay, Schizosaccharomyces pombe; settings: serial dilution 67-0.5 µg/mL, overnight incubation, n.i. = no inhibition
Method: as §1

[12] = test system: Mucor hiemalis (DSM 2656); experiment: Serial dilution MIC assay, Mucor hiemalis; settings: overnight incubation, n.i. = no inhibition
Method: as §1

[13] = test system: L929 (ACC2) mouse fibroblasts; experiment: MTT cytotoxicity test, L929; settings: five days incubation, n.c. = no cytotoxicity; for pIC50: read-out: IC50
From the text: (§2) A panel of mammalian cell lines was used to determine the cytotoxicity of the compounds following a previously published protocol. The assay was initially performed using the sensitive cell lines KB3.1 (human endocervical adenocarcinoma) and L929 (mouse fibroblasts). Active compounds were further tested using the cell lines MCF-7 (human breast adenocarcinoma), PC-3 (human prostate adenocarcinoma), SKOV-3 (ovarian carcinoma), A549 (human lung carcinoma), and A431 (human squamous cell carcinomas) (Table 6). The cell lines A549, KB 3.1, and L929 were cultured in DMEM (Gibco, provided by Thermo Fisher Scientific), PC-3 in F12-K (Gibco) and MC-7, and SKOV-3 and A431 in RPMI (Gibco). With the exception of A549, all cell lines were supplemented with 10% bovine serum (Gibco). All cell lines were cultured at 37 °C. The L929 and KB 3.1 cell lines were cultivated under an atmosphere of 10% (v/v) carbon dioxide. Cytotoxicity tests were then carried out using MTT (3-(4,5-dimethylthiazol-2-yl)-2,5-diphenyltetrazolium bromide) in 96-well microtiter plates. Serial dilutions of the compounds (60 µL aliquots, each with an initial concentration of 1 mg/mL) were added into 120 µL aliquots of cell suspension (50000 cells/mL) in the 96-well plates. These were incubated for five days, after which an MTT assay was performed. The absorbance was taken at 590 nm using an Elisa plate reader (Victor, Überlingen, Germany). The half-maximal inhibitory concentration (IC50), the concentration at which cell growth inhibition was 50% of the control, was calculated as described elsewhere.

[14] = test system: KB3.1 (ACC158) human endocervical adenocarcinoma; experiment: MTT cytotoxicity test, KB3.1; settings: KB3.1 human endocervical adenocarcinoma, five days incubation, n.c. = no cytotoxicity; for pIC50: read-out: IC50
From the text: as §2

[15] = test system: tested microorganisms (bacteria and fungi); experiment: Serial dilution MIC assays, whole panel of tested strains; settings: all bacteria and fungi of Tables 4 and 5, result in words
Method: as §1

[16] = test system: MCF-7 (A115) human breast adenocarcinoma; experiment: MTT cytotoxicity test, MCF-7; settings: MCF-7 human breast adenocarcinoma, five days incubation
From the text: as §2

[17] = test system: A549 (ACC107) human lung carcinoma; experiment: MTT cytotoxicity test, A549; settings: five days incubation
From the text: as §2

[18] = test system: PC-3 (ACC465) human prostate adenocarcinoma; experiment: MTT cytotoxicity test, PC-3; settings: PC-3 human prostate adenocarcinoma, five days incubation
From the text: as §2

[19] = test system: SKOV-3 (ovarian carcinoma); experiment: MTT cytotoxicity test, SKOV-3; settings: five days incubation
From the text: as §2

[20] = test system: A431 (ACC91) human squamous cell carcinomas; experiment: MTT cytotoxicity test, A431; settings: five days incubation
From the text: as §2

[21] = DSM10, serial dilution 67-0.5 µg/mL, read-out: MIC
[22] = DSM346, serial dilution 67-0.5 µg/mL, read-out: MIC
[23] = DSM10134, serial dilution 67-0.5 µg/mL, read-out: MIC
[24] = DSM2656, serial dilution 67-0.5 µg/mL, read-out: MIC
[25] = DSM30191, serial dilution 67-0.5 µg/mL, read-out: MIC

Compound	MIC [1, 21] [µg/mL]	MIC [2]	MIC [3, 22] [µg/mL]	MIC [4]	MIC ([6]; serial dilution 67-0.5 µg/mL)	MIC [7]	MIC [8]	MIC [9]	MIC [11]	IC50 [13]	pIC50 ([14]; KB 3-1, 120 h)	IC50 [14]	pIC50 ([13]; 120 h)	also measured
CC(C)C1=C2[C@H]3CC=C4[C@@H]5O[C@@H]6[C@@]7(O)[C@@H](OC[C@]6(O)O5)O[C@@H]([C@@H]47)[C@]3(C)CC[C@@]2(C)CC1=O [Compound 2, dentifragilin B]	66.6 (≈ 150 µM)	n.i.	66.6 (≈ 150 µM)	n.i.	n.i.	n.i.	n.i.	n.i.	n.i.	no activity	4.29	–	–	MIC ([5]; serial dilution 67-0.5 µg/mL): n.i.; MIC ([10]; serial dilution 67-0.5 µg/mL): n.i.; MIC ([12]; serial dilution 67-0.5 µg/mL): n.i.
CC(C)C1=C2[C@H]3CC[C@@H]4CO[C@@]5(O)[C@H](O)CO[C@H]6O[C@@H]([C@@H]4[C@]65O)[C@]3(C)CC[C@@]2(C)CC1=O [Compound 3, dentifragilin C]	–	n.i.	–	n.i.	n.i.	n.i.	n.i.	n.i.	n.i.	not cytotoxic	–	not cytotoxic	–	MIC ([1]; serial dilution 67-0.5 µg/mL): n.i.; MIC ([3]; serial dilution 67-0.5 µg/mL): n.i.; MIC ([5]; serial dilution 67-0.5 µg/mL): n.i.; MIC ([10]; serial dilution 67-0.5 µg/mL): n.i.; MIC ([12]; serial dilution 67-0.5 µg/mL): n.i.; activity against all tested microorganisms [15]: devoid of any activity
CC(C)C1=C2[C@H]3CC[C@H](CO)[C@@H]4[C@H](O[C@@H]5OC[C@@H](O)[C@H](O)[C@@]54O)[C@]3(C)CC[C@@]2(C)CC1=O [Compound 4, dentifragilin D]	16.7 (≈ 37.1 µM)	n.i.	33.3 (≈ 73.9 µM)	n.i.	n.i.	n.i.	n.i.	n.i.	n.i.	weak activities	4.37	weak activities	4.31	MIC ([5]; serial dilution 67-0.5 µg/mL): n.i.; MIC [10, 23]: 66.6 µg/mL (≈ 148 µM); MIC [12, 24]: 66.6 µg/mL (≈ 148 µM)
CC(C)C1=C2[C@H]3CC=C(C=O)[C@@H]4[C@H](O[C@@H]5OC[C@@H](O)[C@H](O)[C@@]54O)[C@]3(C)CC[C@@]2(C)CC1 [Compound 5, dentifragilin E]	16.7 (≈ 38.6 µM)	n.i.	16.7 (≈ 38.6 µM)	n.i.	n.i.	n.i.	n.i.	n.i.	n.i.	weak activities	4.80	weak activities	4.46	MIC [5, 25]: 66.6 µg/mL (≈ 154 µM); MIC [10, 23]: 66.6 µg/mL (≈ 154 µM); MIC [12, 24]: 33.3 µg/mL (≈ 77 µM)
CC(C)C1=C2[C@H]3CC[C@H](CO)[C@@H]4[C@H](O[C@@H]5OC[C@@H](O)[C@H](O)[C@@]54O)[C@]3(C)CC[C@@]2(C)CC1 [Compound 6, dentifragilin F]	–	–	–	–	–	–	–	–	–	not cytotoxic	–	not cytotoxic	–	–
CO[C@H]1O[C@@]2(O)[C@H](O)CO[C@H]3O[C@H]4[C@@H]([C@@H]1CC[C@@H]1C5=C(C(C)C)CC[C@]5(C)CC[C@]14C)[C@]32O [Compound 7, dentifragilin G]	–	–	–	–	–	–	–	–	–	weak activities	4.99	weak activities	4.83	–
CO[C@H]1O[C@H]2[C@H](O)CO[C@H]3O[C@H]4[C@@H](C1=CC[C@@H]1C5=C(C(C)C)CC[C@]5(C)CC[C@]14C)[C@]32O [Compound 8, dentifragilin H]	–	–	–	–	–	–	–	–	–	–	5.70	–	5.00	–
O=C(O)c1cn(C2CC2)c2cc(N3CCNCC3)c(F)cc2c1=O [ciprofloxacin, reference compound]	–	–	–	–	–	–	–	–	–	–	–	–	–	MIC ([4]; read-out: MIC): 0.3 µg/mL (≈ 0.905 µM)
C/C(=C\c1csc(C)n1)[C@@H]1C[C@@H]2O[C@]2(C)CCC[C@H](C)[C@H](O)[C@@H](C)C(=O)C(C)(C)[C@@H](O)CC(=O)O1 [epothilon B, reference compound]	–	–	–	–	–	–	–	–	–	–	–	–	–	pIC50 [13]: 10.33; pIC50 [14]: 10.48; pIC50 [16]: 10.52; pIC50 [17]: 10.02; pIC50 [18]: 9.82; pIC50 [19]: 10.29; pIC50 [20]: 10.17
NC[C@H]1O[C@H](O[C@H]2[C@H](O)[C@@H](O[C@H]3O[C@H](CO)[C@@H](O)[C@H](N)[C@H]3O)[C@H](N)C[C@@H]2N)[C@H](O)[C@@H](O)[C@@H]1O [kanamycin, reference compound]	–	1.7 ^b µg/mL	–	–	–	–	–	–	–	–	–	–	–	–
C[C@@H]1[C@H](O)[C@@H](C)/C=C/C=C/CC/C=C/C=C/C=C/C=C/C(O[C@H]2O[C@H](C)[C@@H](O)[C@H](N)[C@@H]2O)CC2O[C@](O)(CC(O)C(O)CCC(O)CC(O)CC(O)CC(=O)O[C@H]1C)CC(O)C2C(=O)O (stereo partly shown) [nystatin, reference compound]	–	–	–	–	–	–	8.3 µg/mL (≈ 8.96 µM)	8.3 µg/mL (≈ 8.96 µM)	4.2 µg/mL (≈ 4.54 µM)	–	–	–	–	MIC ([10]; serial dilution 67-0.5 µg/mL): 2.1 µg/mL (≈ 2.27 µM); MIC ([12]; serial dilution 67-0.5 µg/mL): 4.2 µg/mL (≈ 4.54 µM)
CN(C)[C@@H]1C(O)=C(C(N)=O)C(=O)[C@@]2(O)C(O)=C3C(=O)c4c(O)cccc4[C@@](C)(O)[C@H]3[C@H](O)[C@@H]12 [oxytetracycline, reference compound]	4.2 (≈ 9.12 µM)	–	0.2 (≈ 0.434 µM)	–	–	–	–	–	–	–	–	–	–	MIC [5, 25]: 0.8 µg/mL (≈ 1.74 µM); MIC ([6]; DSM1116, serial dilution 67-0.5 µg/mL, read-out: MIC): 3.3 µg/mL (≈ 7.17 µM)
gentamycin [reference compound]	–	–	–	–	–	0.4 ^d µg/mL	–	–	–	–	–	–	–	–
